Tests used:
[1] = biological target: T1, His-BIR2-3 (125-356, C202A/C213G, XIAP) (Homo sapiens, UniProt P98170, C202A/C213G); assay: XIAP-BIR2-3 Dimeric SMAC Peptide Homogeneous Time Resolved Fluorescence (HTRF) Assay; type: binding; details: XIAP BIR2-3, HTRF, Table 4
T1 construct: additions of His-BIR2-3 (125-356, C202A/C213G, XIAP), fluorescein labeled dimeric SMAC peptide

[2] = biological target: T2, His-BIR3 (241-356, XIAP) (Homo sapiens, UniProt P98170); assay: XIAP-BIR3/SMAC Homogeneous Time Resolved Fluorescence (HTRF) Assay; type: binding; details: Table 4
T2 construct: additions of His-BIR3 (241-356, XIAP), fluorescein labeled SMAC peptide
T2 sequence (P98170 241-356): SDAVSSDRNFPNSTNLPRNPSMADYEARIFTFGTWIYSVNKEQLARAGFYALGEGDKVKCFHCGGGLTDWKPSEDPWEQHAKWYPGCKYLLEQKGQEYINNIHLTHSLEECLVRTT

T1 sequence (P98170 125-356 C202A/C213G): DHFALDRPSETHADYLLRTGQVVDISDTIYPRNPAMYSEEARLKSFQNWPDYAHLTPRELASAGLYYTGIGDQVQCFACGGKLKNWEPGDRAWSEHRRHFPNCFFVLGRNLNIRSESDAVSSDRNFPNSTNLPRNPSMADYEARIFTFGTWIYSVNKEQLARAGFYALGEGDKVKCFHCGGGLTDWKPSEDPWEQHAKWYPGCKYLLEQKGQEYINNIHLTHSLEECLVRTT

SMILES | IC50 [1] [µM] | IC50 [2] [µM]
CN[C@@H](C)C(=O)N[C@H](C(=O)N1C[C@@H]2C[C@H]1C(=O)N[C@@H](Cc1ccc3ccccc3c1)C(=O)N[C@H](C(=O)O)Cc1ccc(cc1)OCc1cn(nn1)[C@H]1C[C@@H](C(=O)N[C@@H](Cc3ccc4ccccc4c3)C(=O)N[C@H](C(=O)N3CCC(C(=O)O)CC3)Cc3ccc(cc3)OCc3cn2nn3)N(C(=O)[C@@H](NC(=O)[C@H](C)NC)C(C)(C)C)C1)C(C)(C)C [Compound 1027] | 0.001 to 0.01 | 0.01 to 0.1
CN[C@@H](C)C(=O)N[C@H](C(=O)N1C[C@@H]2C[C@H]1C(=O)N[C@@H](Cc1ccc3ccccc3c1)C(=O)N[C@H](C(=O)O)Cc1ccc(cc1)OCc1cn(nn1)[C@H]1C[C@@H](C(=O)N[C@@H](Cc3ccc4ccccc4c3)C(=O)N[C@H](C(=O)N(C)CCC(=O)O)Cc3ccc(cc3)OCc3cn2nn3)N(C(=O)[C@@H](NC(=O)[C@H](C)NC)C(C)(C)C)C1)C(C)(C)C [Compound 1028] | ≤ 0.001 | < 0.01
CN[C@@H](C)C(=O)N[C@H](C(=O)N1C[C@@H]2C[C@H]1C(=O)N[C@@H](Cc1ccc3ccccc3c1)C(=O)N[C@H](C(=O)O)Cc1ccc(cc1)OCc1cn(nn1)[C@H]1C[C@@H](C(=O)N[C@@H](Cc3ccc4ccccc4c3)C(=O)N[C@H](C(=O)NCc3cccc(-c4nnn[nH]4)c3)Cc3ccc(cc3)OCc3cn2nn3)N(C(=O)[C@@H](NC(=O)[C@H](C)NC)C(C)(C)C)C1)C(C)(C)C [Compound 1029] | 0.001 to 0.01 | 0.01 to 0.1
CN[C@@H](C)C(=O)N[C@H](C(=O)N1C[C@@H]2C[C@H]1C(=O)N[C@@H](Cc1ccc3ccccc3c1)C(=O)N[C@H](C(=O)O)Cc1ccc(cc1)OCc1cn(nn1)[C@H]1C[C@@H](C(=O)N[C@@H](Cc3ccc4ccccc4c3)C(=O)N[C@H](C(=O)NCCCC(=O)O)Cc3ccc(cc3)OCc3cn2nn3)N(C(=O)[C@@H](NC(=O)[C@H](C)NC)C(C)(C)C)C1)C(C)(C)C [Compound 1032] | ≤ 0.001 | < 0.01

Next, values leading:

IC50 [1] [µM] | IC50 [2] [µM] | SMILES
0.001 to 0.01 | < 0.01 | CN[C@@H](C)C(=O)N[C@H](C(=O)N1C[C@@H]2C[C@H]1C(=O)N[C@@H](Cc1ccc3ccccc3c1)C(=O)N[C@H](C(=O)O)Cc1ccc(cc1)OCc1cn(nn1)[C@H]1C[C@@H](C(=O)N[C@@H](Cc3ccc4ccccc4c3)C(=O)N[C@H](C(=O)N[C@@H](C)C(=O)O)Cc3ccc(cc3)OCc3cn2nn3)N(C(=O)[C@@H](NC(=O)[C@H](C)NC)C(C)(C)C)C1)C(C)(C)C [Compound 1033]
> 0.01 | 0.01 to 0.1 | CN[C@@H](C)C(=O)N[C@H](C(=O)N1C[C@@H]2C[C@H]1C(=O)N[C@@H](Cc1ccc3ccccc3c1)C(=O)N[C@H](C(=O)O)Cc1ccc(cc1)OCc1cn(nn1)[C@H]1C[C@@H](C(=O)N[C@@H](Cc3ccc4ccccc4c3)C(=O)N[C@H](C(=O)N[C@@H](CCCCN)C(=O)N[C@@H](CO)C(=O)O)Cc3ccc(cc3)OCc3cn2nn3)N(C(=O)[C@@H](NC(=O)[C@H](C)NC)C(C)(C)C)C1)C(C)(C)C [Compound 1034]
≤ 0.001 | < 0.01 | CN[C@@H](C)C(=O)N[C@H](C(=O)N1C[C@@H]2C[C@H]1C(=O)N[C@@H](Cc1ccc3ccccc3c1)C(=O)N[C@H](C(=O)O)Cc1ccc(cc1)OCc1cn(nn1)[C@H]1C[C@@H](C(=O)N[C@@H](Cc3ccc4ccccc4c3)C(=O)N[C@H](C(=O)NS(=O)(=O)c3ccccn3)Cc3ccc(cc3)OCc3cn2nn3)N(C(=O)[C@@H](NC(=O)[C@H](C)NC)C(C)(C)C)C1)C(C)(C)C [Compound 1035]
0.001 to 0.01 | 0.01 to 0.1 | CN[C@@H](C)C(=O)N[C@H](C(=O)N1C[C@@H]2C[C@H]1C(=O)N[C@@H](Cc1ccc3ccccc3c1)C(=O)N[C@H](C(=O)O)Cc1ccc(cc1)OCc1cn(nn1)[C@H]1C[C@@H](C(=O)N[C@@H](Cc3ccc4ccccc4c3)C(=O)N[C@H](C(=O)NS(=O)(=O)c3ccc(OC(F)(F)F)cc3)Cc3ccc(cc3)OCc3cn2nn3)N(C(=O)[C@@H](NC(=O)[C@H](C)NC)C(C)(C)C)C1)C(C)(C)C [Compound 1036]

— patent US20140309265A1, “MACROCYCLIC COMPOUNDS FOR INHIBITION OF INHIBITORS OF APOPTOSIS” (Ensemble Therapeutics, priority 2011, published 2014)
